Type in all cases: cell-based
One assay has as its system HeLa. The assay can be described thus: Proliferation assay (CellTiter-Glo luminescent cell viability assay), HeLa. The settings on record: HeLa (printed as human ovarian carcinoma); 48 hours incubation; 10% (v/v) FCS; read-out: EC50 (effective concentration reducing cell proliferation by 50%), inhibition of HeLa proliferation. Here is the method: (§1) The assay is based on the relation that the ATP content is directly proportional to the number of cells present in the culture. The CellTiter-Glo® assay is performed to measure the proliferation rate of human hepatoma (HuH7, PLC/PRF/5, Hep3B, SK-Hep1), human hepatoblastoma (HepG2), human colon carcinoma (CX-2), human breast cancer (SK-Br-3), human […] (HeLa) and human pancreatic carcinoma (DAN-G) cell lines (see Example 2). […] Further, HepG2 and Hep3B are inhibited with an EC50 of 0.9 and 0.3 µM, respectively.
(§2) To determine the inhibition of cell proliferation a luminescent cell viability assay (CellTiter-Glo®; Promega, Madison, USA) is implemented. The assay is based on the relation that the ATP content is directly proportional to the number of cells present in the culture, see Technical Bulletin No. 228 "CellTiter-Glo® Luminescent Cell viability Assay", Revised 2/04. Promeg, Madison, USA. […] Triplicates are measured for each concentration. […] The final cell number is determined after 48 hour of incubation. […] After subsequent incubation for additional 10 minutes at room temperature the luminescence signal was recorded within 30 min. EC50 values are calculated using the four-parametric Hill equation (Sigma Plot). […]
Background: In ATP-based viability assays light output follows the ATP content of the culture.

For another assay, the system named is DAN-G. The assay can be described thus: Proliferation assay (CellTiter-Glo luminescent cell viability assay), DAN-G. Particulars: human pancreatic carcinoma DAN-G; 48 hours incubation; 10% (v/v) FCS; read-out: EC50 (effective concentration reducing cell proliferation by 50%), inhibition of DAN-G proliferation. How it is done: as §1, §2
The test system of another assay is Sk-Br-3. The assay can be described thus: Proliferation assay (CellTiter-Glo luminescent cell viability assay), SK-Br-3. The settings on record: human breast cancer SK-Br-3; 48 hours incubation; 10% (v/v) FCS; read-out: EC50 (effective concentration reducing cell proliferation by 50%), inhibition of SK-Br-3 proliferation. How it is done: as §1, §2
In another assay the test system is HepG2. Put plainly: Proliferation assay (CellTiter-Glo luminescent cell viability assay), HepG2. The settings on record: human hepatoblastoma HepG2; 48 hours incubation; 10% (v/v) FCS; read-out: EC50, inhibition of HepG2 proliferation. How it is done: as §1, §2
A further assay deals with Hep3B. Put plainly: Proliferation assay (CellTiter-Glo luminescent cell viability assay), Hep3B. Particulars: human hepatoma Hep3B; 48 hours incubation; 10% (v/v) FCS; read-out: EC50, inhibition of Hep3B proliferation. Here is the method: as §1, §2
In another assay the test system is HuH7. The assay can be described thus: Proliferation assay (CellTiter-Glo luminescent cell viability assay), HuH7. The settings on record: Huh-7; human hepatoma HuH7; 48 hours incubation; 10% (v/v) FCS; compounds 0 to 20 µM; read-out: EC50 (effective concentration reducing cell proliferation by 50%), inhibition of HuH7 proliferation. How it is done:
as §1
To determine the inhibition of cell proliferation a luminescent cell viability assay (CellTiter-Glo®; Promega, Madison, USA) is implemented. The assay is based on the relation that the ATP content is directly proportional to the number of cells present in the culture, see Technical Bulletin No. 228 "CellTiter-Glo® Luminescent Cell viability Assay", Revised 2/04. Promeg, Madison, USA. The CellTiter-Glo® assay is performed to measure the proliferation rate of human hepatoma (HuH7, PLC/PRF/5, Hep3B, SK-Hep1), human hepatoblastoma (HepG2), human colon carcinoma (CX-2), human breast cancer (SK-Br-3), human […] (HeLa) and human pancreatic carcinoma (DAN-G) cell lines. 3000 viable cells (viability ≥ 90%) are seeded in opaque-walled 96-well plates and incubated for 24 hours in DMEM, supplemented with 2 mM glutamin. Cell proliferation is stimulated by addition of FCS to a final concentration of 10% (v/v). Simultaneously the compounds I to XVII (see Table 1 A to 1D and 2) are added in a concentration range of 0 to 20 µM. Triplicates are measured for each concentration. Cells and compounds (see Table 1 A to 1D, and 2) are incubated for a period of 48 hours in a volume of 140 µl cell culture medium (10% (v/v) FCS, 2 mM Glutamin, DMEM). The compounds are solved in 60% to 100% (v/v) DMSO at a concentration of 2 mM. The final DMSO concentration under assay conditions never exceeded 1% (v/v). Throughout the assay cells are kept in a humidified incubator (95% rH) at 37°C and 5% CO2. The final cell number is determined after 48 hour of incubation. Therefore 140 µl CellTiter-Glo®Reagent is added in each well. The contents are mixed on an orbital shaker for 2 minutes at room temperature. After subsequent incubation for additional 10 minutes at room temperature the luminescence signal was recorded within 30 min. EC50 values are calculated using the four-parametric Hill equation (Sigma Plot).
Control values are: (1) 10% (v/v) FCS, 2 mM Glutamin, DMEM -> maximum cell number and (2) 2 mM Glutamin, DMEM -> initial cell number.

The subject of the next assay is CX-2. The assay can be described thus: Proliferation assay (CellTiter-Glo luminescent cell viability assay), CX-2. The settings on record: human colon carcinoma CX-2; 48 hours incubation; 10% (v/v) FCS; read-out: EC50 (effective concentration reducing cell proliferation by 50%), inhibition of CX-2 proliferation. How it is done:
as §1, §2

Turning to `O=C(/C=C/c1ccc2c(c1)OCO2)N1CCC(c2nc(-c3ccc4c(c3)OCCO4)cs2)CC1` [Compound I, E-3-{4-[4-(3,4-ethylendioxphenyl)-thiazol-2-yl]-piperidin-1-yl}-1-(3,4-methylendioxyphenyl)-3-oxo-prop-1-ene], the EC50 with HeLa turned out to be 14.8 µM; in the assay on DAN-G it was 4.69 µM; with Sk-Br-3, 10.8 µM; in the assay with HepG2, 0.9 µM; in the assay with Hep3B, 0.3 µM; in the assay with HuH7, 0.33 µM. Moreover, the EC50 with CX-2 was found to be 19.1 µM.
For `CCOC(=O)c1cc(-c2csc(C3CCN(C(=O)C(Cc4ccccc4F)NC(C)=O)CC3)n2)on1` (stereo not drawn) [III], the EC50 in the assay on HuH7 is 1.61 µM.
Same read-out and setting: under `CCOC(=O)c1cc(-c2csc(C3CCN(C(=O)/C(C)=C/c4cc(OC)c(OC)cc4OC)CC3)n2)on1` [II] stands 12.4 µM; under `COC(=O)C(NC(=O)N1CCC(c2nc(-c3ccc4c(c3)OCCO4)cs2)CC1)C(C)C` (stereo not drawn) [IV], 5.02 µM.
The same measure, in the same setting: under `O=C(C1COc2ccccc2O1)N1CCC(c2nc(-c3ccc4c(c3)OCCO4)cs2)CC1` (stereo not drawn) [IX] stands 3.93 µM; under `CCOC(=O)CNC(=O)N1CCC(c2nc(-c3cccc(Br)c3)cs2)CC1` [VIII], 1.89 µM.
Same read-out and setting: next, `O=C(c1cccnc1OCC(F)(F)F)N1CCC(c2nc(-c3ccc4c(c3)OCCO4)cs2)CC1` [VII]: 6.2 µM; `CCOC(=O)c1cc(-c2csc(C3CCN(C(=O)/C=C/c4ccc5c(c4)OCO5)CC3)n2)on1` [VI]: 20.7 µM.
In the case of `Cc1nn(C)c(Cl)c1/C=C/C(=O)N1CCC(c2nc(-c3ccc4c(c3)OCCO4)cs2)CC1` [V], the EC50 with HeLa is 18.7 µM; in the assay with DAN-G it was 11.1 µM; in the assay with Sk-Br-3 it was above 20 µM; in the assay on HuH7, 10.7 µM; in the assay on CX-2, above 20 µM.
With `O=C(c1csc(-c2cnccn2)n1)N1CCC(c2nc(-c3ccc4c(c3)OCCO4)cs2)CC1` [XIII], in the assay on HuH7, the EC50 came out at 6 µM.
Same read-out and setting: under `CCN(CC)c1ccc(-c2csc(C3CCN(Cc4ccc(N(CCC#N)CCC#N)cc4)CC3)n2)cc1` [XII] stands 5.76 µM; under `O=C1CC(C(=O)N2CCC(c3nc(-c4ccc5c(c4)OCCO5)cs3)CC2)CN1Cc1cccs1` (stereo not drawn) [XIV], 29 µM.
`O=C(c1ccccc1C[S+]([O-])c1ccccc1)N1CCC(c2nc(-c3ccc4c(c3)OCCO4)cs2)CC1` (stereo not drawn) [XI]: the EC50 in the assay with HuH7 is 3.35 µM.
On the same count and under the same terms, under `CCOC(=O)/C=C/C(=O)N1CCC(c2nc(-c3ccc(Cl)c([N+](=O)[O-])c3)cs2)CC1` [XVII] stands 0.63 µM; under `O=C(C1N=Nc2ccccc21)N1CCC(c2nc(-c3ccc4c(c3)OCCO4)cs2)CC1` (stereo not drawn) [XVI], 24.9 µM.
Consider `Cc1cc(Cl)ccc1NC(=O)COCC(=O)N1CCC(c2nc(-c3ccc4c(c3)OCCO4)cs2)CC1` [XV], for which the EC50 in the assay on HuH7 came to 4.94 µM.
The same measure, in the same setting: next, `O=C(CCCc1nc2ccccc2[nH]1)N1CCC(c2nc(-c3cccc(Br)c3)cs2)CC1` [X]: 1.93 µM.

For the origin of these results see patent publication EP1832585A1, “Thiazole-piperidine derivatives for treatment of hyperproliferative diseases” (Oridis Biomed Forschungs- und Entwicklungs GmbH, priority 2006, dated 2007).
